# Measured values from patent US5824072A, “Biocompatible ocular implants” (Oculex Pharmaceuticals, Inc., priority 1996, dated 1998).
# Read-outs that look alike come from different tables or passages of the source.
# Key:
# [1] = rabbit, in vivo
# Protocol: One eye of each of six rabbits was implanted at the pars plana with methotrexate (MTX)-lactic acid microspheres and in one eye of another six rabbits with hydrocortisone, acetate-lactic acid microspheres.
# A 40% (by weight) mixture of MIX and hydrocortisone with polylactate polymer were solubilized in chloroform and ethanol (Table 1). Coacervation into microcapsules tool place in 500 ml of a 5% polyvinyl alcohol aqueous solution with moderate to high speed stirring. Evaporation was performed under light vacuum with constant stirring for an additional 8 hrs. The resulting microspheres measuring 0.1 to 0.5 mm were selected and dried in vacuum for an additional 24 to 48 hours. Approximately 25 microcapsules were implanted at the pars plana.
# [2] = rabbit, in vivo; remark: listed apart in the source
# Protocol: A 40% (by weight) of MTX and hydrocortisone and polylactate polymer were mixed under moltened conditions (Table 2). The resulting mixture was plated into a thin layer of approximately 0.4 to 0.5 mm in thickness and cooled overnight at room temperature. A plaque measuring approximately 3×4 mm was fashioned from the layer and was surgically placed into the pars plana.
# Plaques of MTX and hydrocortsone were given to one eye of each of 3 animals at the pars plana and over the vitreous base following scleral resection.
# [3] = In vitro drug release from polyurethane sheets; format: physicochemical
# Protocol: After drying of the mixtures, implants were then cut from the resulting sheets of drug-filled polymer affixed to the release liner. The drug-release behavior of the polymeric, drug-containing sheets was then tested. The release liner was removed from an implant sheet and a weighed sample of the sheet added to a solution containing four parts by weight ethanol and six parts by weight of deionized water at 37° C. with slow stirring. The appearance of the dissolved drug was followed as a function of time by spectrophotometry.
smiles,measurement,setting,value
"C[C@]12CCC(=O)C=C1CC[C@@H]1[C@@H]2[C@@H](O)C[C@@]2(C)[C@H]1CC[C@]2(O)C(=O)CO [Hydrocortisone, hydrocortisone]","drug concentration, RE PC",[1]; 10080 min,0 ng/mL
same,"drug concentration, RE PC",[1]; 20160 min,0 ng/mL
same,"drug concentration, RE PC",[1]; 30240 min,0 ng/mL
same,"drug concentration, RE PC",[1]; 40320 min,0 ng/mL
same,"drug concentration, RE PC",[1]; 50400 min,0 ng/mL
same,"drug concentration, RE PC",[1]; 60480 min,0 ng/mL
same,"drug concentration, RE PC",[2]; 43200 min,0 ng/mL
same,"drug concentration, RE PC",[2]; 86400 min,0 ng/mL
same,"drug concentration, RE PC",[2]; 129600 min,0 ng/mL
C[C@@H]1C[C@H]2[C@@H]3CCC4=CC(=O)C=C[C@]4(C)[C@@]3(F)[C@@H](O)C[C@]2(C)[C@@]1(O)C(=O)CO [dexamethasone],drug released from sheets,"[3]; Example 1 polyurethane/dexamethasone sheet, ethanol/deionized water 4:6 by weight, 37° C., within 4 hrs",more than 50%
Nc1nc(O)c2ncn(COC(CO)CO)c2n1 [gancyclovir],drug released from sheets,"[3]; Example 2 polyurethane/gancyclovir sheet, in vitro as described above, after the first 2 hrs",more than 60%
"CN(Cc1cnc2nc(N)nc(N)c2n1)c1ccc(C(=O)N[C@@H](CCC(=O)O)C(=O)O)cc1 [MTX, methotrexate]","drug concentration, LE PC",[1]; 10080 min,0 ng/mL
same,"drug concentration, LE PC",[1]; 20160 min,0 ng/mL
same,"drug concentration, LE PC",[1]; 30240 min,0 ng/mL
same,"drug concentration, LE PC",[1]; 40320 min,0 ng/mL
same,"drug concentration, LE PC",[1]; 50400 min,0 ng/mL
same,"drug concentration, LE PC",[1]; 60480 min,0 ng/mL
same,"drug concentration, LE PC",[2]; 43200 min,0 ng/mL
same,"drug concentration, LE PC",[2]; 86400 min,0 ng/mL
same,"drug concentration, LE PC",[2]; 129600 min,0 ng/mL
